Measured values from patent US6683077B2, “2-Amino-benzoxazinones for the treatment of viral infections” (G.D. Searle & Co., priority 1996, dated 2004).

Columns and labels:
[1] = tested on: HCMV engineered virus RC256; test: microbe, parasite or virus in culture; assay type: cell-based, human cytomegalovirus; conditions: Human betaherpesvirus 5, Fibroblast, read-out: Antiviral Activity RC256, first value (EC50)
[2] = biological target: T1, Human leukocyte elastase (HLE) (Homo sapiens, UniProt P08246); test: Human leukocyte elastase assay; assay type: biochemical
T1 construct: gift of R. Senior, Washington University
T1 sequence (P08246 30-267): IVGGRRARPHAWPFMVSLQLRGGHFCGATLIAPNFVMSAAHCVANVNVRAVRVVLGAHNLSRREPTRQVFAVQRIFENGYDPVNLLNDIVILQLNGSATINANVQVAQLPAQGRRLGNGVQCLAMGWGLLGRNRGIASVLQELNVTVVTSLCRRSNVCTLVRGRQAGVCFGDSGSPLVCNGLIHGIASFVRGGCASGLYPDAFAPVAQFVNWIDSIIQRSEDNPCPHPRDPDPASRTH
Protocol: Human leukocyte elastase (HLE) (gift of R. Senior, Washington University) was dissolved in saline at 1 mg/ml and further diluted 1/20 in assay buffer (0.2 M Tris, pH 8.0) before use. 10 μl of test compound in DMSO (or DMSO alone), 100 μl of assay buffer and 50 μl of enzyme were added to 96 well plates, mixed and pre-incubated for 30 minutes at ambient temperature. Reaction was initiated by addition of 40 μl of 2.5 mM methoxysuccinyl-Ala-Ala-Pro-Val-p-nitroanilide (Sigma; 25 mM in DMSO diluted 1/10 in assay buffer before use). The increase in absorbance at 405 nm was monitored for 10 minutes with a Biotek EL340 plate reader.

[3] = @ 1 (concentration unit not given)
[4] = @ 10 (concentration unit not given)
[5] = @ 100 (concentration unit not given)

| Compound | EC50 [1] | HLE, % @ concentration [2, 3] | HLE, % @ concentration ([2]; @ 6 (concentration unit not given)) | HLE, % @ concentration [2, 4] | HLE, % @ concentration [2, 5] |
| --- | --- | --- | --- | --- | --- |
| COc1ccc(C[C@H](Nc2nc3ccc(CNC(=O)CC(C)(C)C)c(C)c3c(=O)o2)C(=O)N(C)Cc2ccccc2)cc1 [Example 9m, αS-[[6-[[(3,3-Dimethyl-1-oxobutyl)amino]methyl]-5-methyl-4-oxo-4H-3,1-benzoxazin-2-yl]amino]-4-methoxy-N-methyl-N-(phenylmethyl)benzenepropanamide] | 14 µM | 73% @ 1 | – | – | – |
| COc1ccc(C[C@H](Nc2nc3ccc(CNC(=O)Cc4ccc(N(C)C)cc4)c(C)c3c(=O)o2)C(=O)N(C)Cc2ccccc2)cc1 [Example 9o, αS-[[6-[[[[4-(Dimethylamino)phenyl]acetyl]amino]methyl]-5-methyl-4-oxo-4H-3,1-benzoxazin-2-yl]amino]-4-methoxy-N-methyl-N-(phenylmethyl)benzenepropanamide] | 14 µM | 73% @ 1 | – | – | – |
| CCN(Cc1ccccc1)C(=O)[C@H](Cc1ccc(OC)cc1)Nc1nc2ccc(CNC(=O)OCc3ccccc3)c(C)c2c(=O)o1 [Example 9p, Phenylmethyl[[2-[[2-[ethyl(phenylmethyl)amino]-1S-[(4-methoxyphenyl)methyl]-2-oxoethyl]amino]-5-methyl-4-oxo-3,1-benzoxazin-6-yl]methyl]carbamate] | > 100 µM | – | 45% @ 6 | – | – |
| Cc1c(CNC(=O)OCc2ccccc2)ccc2nc(N[C@@H](Cc3ccccc3)C(=O)N(C)Cc3ccccc3)oc(=O)c12 [Example 9r, Phenylmethyl[[5-methyl-2-[[2-[methyl(phenylmethyl)amino]-2-oxo-1S-(phenylmethyl)ethyl]amino]-4-oxo-4H-3,1-benzoxazin-6-yl]methyl]carbamate] | 14 µM | 47% @ 1 | – | – | – |
| Cc1c(CNC(=O)c2ccccn2)ccc2nc(N[C@@H](Cc3ccccc3)C(=O)N(C)Cc3ccccc3)oc(=O)c12 [Example 9s, N-[[5-Methyl-2-[[2-[methyl(phenylmethyl)amino]-2-oxo-1S-(phenylmethyl)ethyl]amino]-4-oxo-4H-3,1-benzoxazin-6-yl]methyl]pyridine-2-carboxamide] | 7.5 µM | – | – | 55% @ 10 | – |
| COC(=O)[C@H](Cc1ccccc1)Nc1nc2ccc(NC(=O)CCC(=O)O)c(C)c2c(=O)o1 [Example 11d, N-[6-[[(2-Carboxyethyl)carbonyl]amino]-5-methyl-4-oxo-4H-3,1-benzoxazin-2-yl]-L-phenylalanine, methyl ester] | > 100 µM | – | – | – | 76% @ 100 |
| Cc1c(NC(=O)c2ccco2)ccc2nc(N[C@@H](C)c3ccccc3)oc(=O)c12 [Example 11k, 6-[[(2-Furanyl)carbonyl]amino]-5-methyl-2-[[(1S)-phenylethyl]amino]-4H-3,1-benzoxazin-4-one] | 65 µM | – | – | – | 63% @ 100 |
| COc1ccc(C[C@H](Nc2nc3ccc(NC(=O)c4ccccn4)c(C)c3c(=O)o2)C(=O)N(C)Cc2ccccc2)cc1 [Example 11p, N-[2-[[1S-[(4-Methoxyphenyl)methyl]-2-[-methyl(phenylmethyl)amino]-2-oxoethyl]amino]-5-methyl-4-oxo-4H-3,1-benzoxazin-6-yl]pyridine-2-carboxamide] | 8.5 µM | – | – | 40% @ 10 | – |
| COc1ccc(C[C@H](Nc2nc3ccc(NC(=O)c4ccco4)c(C)c3c(=O)o2)C(=O)N(C)Cc2ccccc2)cc1 [Example 11u, N-[2-[[1S-[(4-Methoxyphenyl)methyl]-2-[methyl(phenylmethyl)amino]-2-oxoethyl]amino]-5-methyl-4-oxo-4H-3,1-benzoxazin-6-yl]furan-2-carboxamide] | 18 µM | – | – | 19% @ 10 | – |
| Cc1c(CNC(=O)Nc2ccccc2)ccc2nc(N[C@@H](Cc3ccccc3)C(=O)N(C)Cc3ccccc3)oc(=O)c12 [Example 12f, N-Methyl-αS-[[5-methyl-4-oxo-6-[[[(phenylamino)carbonyl]amino]methyl]-4H-3,1-benzoxazin-2-yl]amino]-N-(phenylmethyl)benzenepropanamide] | 14 µM | 55% @ 1 | – | – | – |
| Cc1c(CNC(=O)N[C@H](C)c2ccccc2)ccc2nc(N[C@@H](Cc3ccccc3)C(=O)N(C)Cc3ccccc3)oc(=O)c12 [Example 12g] | 30 µM | 45% @ 1 | – | – | – |
| Cc1c(CNC(=O)NCc2ccccc2)ccc2nc(N[C@@H](Cc3ccccc3)C(=O)N(C)Cc3ccccc3)oc(=O)c12 [Example 12h, N-Methyl-αS-[[5-methyl-4-oxo-6-[[[[(phenylmethyl)amino]carbonyl]amino]methyl]-4H-3,1-benzoxazin-2-yl]amino]-N-(phenylmethyl)benzenepropanamide] | 18 µM | 58% @ 1 | – | – | – |
| Cc1c(CNC(=O)N(C)c2ccccc2)ccc2nc(N[C@@H](Cc3ccccc3)C(=O)N(C)Cc3ccccc3)oc(=O)c12 [Example 12i, N-Methyl-αS-[[5-methyl-6-[[[(methylphenylamino)carbonyl]amino]methyl]-4-oxo-4H-3,1-benzoxazin-2-yl]amino]-N-(phenylmethyl)benzenepropanamide] | 6 µM | 47% @ 1 | – | – | – |
| COc1ccc(C[C@H](Nc2nc3ccc(CNC(=O)NCc4ccccc4)c(C)c3c(=O)o2)C(=O)N(C)Cc2ccccc2)cc1 [Example 12j, 4-Methoxy-N-methyl-αS-[[5-methyl-4-oxo-6-[[[[(phenylmethyl)amino]carbonyl]amino]methyl]-4H-3,1-benzoxazin-2-yl]amino]-N-(phenylmethyl)benzenepropanamide] | 17 µM | 63% @ 1 | – | – | – |
| COc1ccc(C[C@H](Nc2nc3ccc(NS(=O)(=O)c4ccccc4)c(C)c3c(=O)o2)C(=O)N(C)Cc2ccccc2)cc1 [Example 13c, 4-Methoxy-N-methyl-αS-[[5-methyl-4-oxo-6-[(phenylsulfonyl)amino]-4H-3,1-benzoxazin-2-yl]amino]-N-(phenylmethyl)benzenepropanamide] | 10 µM | – | – | 39% @ 10 | – |
| Cc1ccc(S(=O)(=O)NCc2cc(Br)c3nc(N[C@@H](Cc4ccccc4)C(=O)N(C)Cc4ccccc4)oc(=O)c3c2C)cc1 [Example 13d, αS-[[8-Bromo-5-methyl-6-[[[(4-methylphenyl)sulfonyl]amino]methyl]-4-oxo-4H-3,1-benzoxazin-2-yl]amino]-N-methyl-N-(phenylmethyl)benzenepropanamide] | 8 µM | – | – | 87% @ 10 | – |
| Cc1c(CNC(=O)CN2CCOCC2)cc(Br)c2nc(N[C@@H](Cc3ccccc3)C(=O)N(C)Cc3ccccc3)oc(=O)c12 [Example 15e, N-[[8-Bromo-5-methyl-2-[[2-[methyl(phenylmethyl)amino]-2-oxo-1S-(phenylmethyl)ethyl]amino]-4-oxo-4H-3,1-benzoxazin-6-yl]methyl]morpholine-4-acetamide] | 16 µM | – | – | – | 78% @ 100 |
| CCN(Cc1ccccc1)C(=O)[C@H](Cc1ccccc1)Nc1nc2c(Br)cc(CNC(=O)CN3CCOCC3)c(C)c2c(=O)o1 [Example 15g, N-[[8-Bromo-2-[[2-[ethyl(phenylmethyl)amino]-2-oxo-1S-(phenylmethyl)ethyl]amino]-5-methyl-4-oxo-4H-3,1-benzoxazin-6-yl]methyl]morpholine-4-acetamide] | 16 µM | 22% @ 1 | – | – | – |
| Cc1c(N(C)C)ccc2nc(N[C@@H](Cc3ccccc3)C(=O)N(C)Cc3ccccc3)oc(=O)c12 [Example 16, αS-[[6-(Dimethylamino)-5-methyl-4-oxo-4H-3,1-benzoxazin-2-yl]amino]-N-methyl-N-(phenylmethyl) benzenepropanamide] | 17 µM | – | – | 59% @ 10 | – |
| CCN(C(=O)[C@H](Cc1ccc(OC)cc1)Nc1nc2ccc(N(C)C)c(C)c2c(=O)o1)c1ccccc1 [Example 16b, αS-[[6-(Dimethylamino)-5-methyl-4-oxo-4H-3,1-benzoxazin-2-yl]amino]-N-ethyl-4-methoxy-N-phenylbenzenepropanamide] | 20 µM | 49% @ 1 | – | – | – |
| COc1ccc(C[C@H](Nc2nc3ccc(N(C)C)c(C)c3c(=O)o2)C(=O)N(C)c2ccc(Cl)cc2)cc1 [Example 16c, N-(4-Chlorophenyl)-αS-[[6-(dimethylamino)-5-methyl-4-oxo-4H-3,1-benzoxazin-2-yl]amino]-4-methoxy-N-methylbenzenepropanamide] | 18 µM | – | – | 18% @ 10 | – |
| Cc1c(NCc2ccccc2)ccc2nc(N[C@@H](Cc3ccccc3)C(=O)N(C)Cc3ccccc3)oc(=O)c12 [Example 17d, N-Methyl-αS-[[5-methyl-4-oxo-6-[(phenylmethyl)amino]-3,1-benzoxazin-2-yl]amino]-N-(phenylmethyl)benzenepropanamide] | 15 µM | – | – | 48% @ 10 | – |
| COc1ccc(C[C@H](Nc2nc3ccc(CNC(=O)OCc4ccncc4)c(C)c3c(=O)o2)C(=O)N(C)Cc2ccccc2)cc1 [Example 18d, (4-Pyridinyl)methyl[[2-[[1S-[(4-methoxyphenyl)methyl]-2-[methyl(phenylmethyl)amino]-2-oxoethyl]amino]-5-methyl-4-oxo-3,1-benzoxazin-6-yl]methyl]carbamate] | 12 µM | 55% @ 1 | – | – | – |
